Results published in US8383637B2, “2-amino-quinazoline derivatives useful as inhibitors of β-secretase (BACE)” (Jansssen Pharmaceutica N.V., priority 2004, dated 2013).

Target: T1, β-secretase(BACE) (Homo sapiens, UniProt P56817)
T1 construct: purchased Panvera
Assay: BACE FS1% Inhibition Assay
Format: biochemical
Conditions: FS1 substrate
Summary of the method: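 Percent inhibition at each tested concentration, referenced to enzyme-free blank and vehicle-only positive control. Reaction: compound and BACE (4 μg/mL working stock) mixed 20 min at room temperature before FS1 substrate (300 μg/mL working stock), then 1 h at room temperature.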

T1 sequence (P56817 46-501): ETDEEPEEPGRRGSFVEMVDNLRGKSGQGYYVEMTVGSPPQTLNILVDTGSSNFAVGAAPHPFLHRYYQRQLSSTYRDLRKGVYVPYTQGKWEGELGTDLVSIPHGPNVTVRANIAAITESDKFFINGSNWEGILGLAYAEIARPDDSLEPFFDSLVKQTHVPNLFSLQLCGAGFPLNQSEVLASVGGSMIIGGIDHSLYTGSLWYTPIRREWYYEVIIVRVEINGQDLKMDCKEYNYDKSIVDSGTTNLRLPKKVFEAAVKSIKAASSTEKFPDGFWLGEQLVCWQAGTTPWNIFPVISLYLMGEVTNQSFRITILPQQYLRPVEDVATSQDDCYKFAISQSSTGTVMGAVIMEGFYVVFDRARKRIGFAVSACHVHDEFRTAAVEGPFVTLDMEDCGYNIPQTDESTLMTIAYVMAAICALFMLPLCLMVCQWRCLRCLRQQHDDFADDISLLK

Row | Compound | % Inhibition (FS) 0.3 μM (0.3 μM test compound) | % Inhibition (FS) 1 μM (1 μM test compound) | % Inhibition (FS) 3 μM (3 μM test compound) | inhibition at 0.3 µM (0.3 μM test compound, read-out: % Inhibition (FS) 0.3 μM) | inhibition at 1 µM (1 μM test compound, read-out: % Inhibition (FS) 1 μM) | inhibition at 3 µM (3 μM test compound, read-out: % Inhibition (FS) 3 μM)
1 | CCc1ccccc1-c1ccc2c(c1)CN(Cc1cccc(C(=O)N(C)C3CCCCC3)c1)C(N)=N2 [Compound 320] | −31% | <30% | <30% |  |  | 
2 | CC(=O)c1ccccc1-c1ccc2c(c1)CN(Cc1cccc(C(=O)N(C)C3CCCCC3)c1)C(N)=N2 [Compound 323] | <30% | <30% | 45% |  |  | 
3 | CN(C(=O)c1cccc(CN2Cc3cc(-c4ccccc4Oc4ccccc4)ccc3N=C2N)c1)C1CCCCC1 [Compound 326] | <30% | 35% | 79% |  |  | 
4 | CN(C(=O)c1cccc(CN2Cc3cc(-c4ccccc4OCc4ccccc4)ccc3N=C2N)c1)C1CCCCC1 [Compound 327] | <30% | <30% | 48% |  |  | 
5 | NC1=Nc2ccc(Oc3ccccc3)cc2CN1C(CC(=O)NC1CC2CCC1C2)C1CCCCC1 (stereo not drawn) [Compound 400, 3-(2-Amino-6-phenoxy-4H-quinazolin-3-yl)-N-bicyclo[2.2.1]hept-2-yl-3-cyclohexyl-propionamide] |  |  |  | < 30% | < 30% | 94%
6 | CC(C)C(CC(=O)NC1CCCCC1)N1Cc2cc(Oc3ccccc3)ccc2N=C1N (stereo not drawn) [Compound 401] | <30% | <30% | 52% |  |  | 
7 | NC1=Nc2ccc(Oc3ccccc3)cc2CN1CCCNC1CCCCC1 [Compound 403] | <30% | <30% | 66% |  |  | 
8 | CCc1ccccc1Sc1ccc2c(c1)CN(Cc1cccc(C(=O)N(C)C3CCCCC3)c1)C(N)=N2 [Compound 406] | <30% | <30% | 50% |  |  | 
9 | Cc1cc(C)cc(Sc2ccc3c(c2)CN(Cc2cccc(C(=O)N(C)C4CCCCC4)c2)C(N)=N3)c1 [Compound 409] | <30% | <30% | 72% |  |  | 
10 | CSc1ccc(Sc2ccc3c(c2)CN(Cc2cccc(C(=O)N(C)C4CCCCC4)c2)C(N)=N3)cc1 [Compound 413] | <30% | <30% | 53% |  |  | 
11 | CN(C(=O)c1cccc(CN2Cc3cc(Sc4cccc5ccccc45)ccc3N=C2N)c1)C1CCCCC1 [Compound 414] | <30% | <30% | 27% |  |  | 
12 | CN(C(=O)c1cccc(CN2Cc3cc(Sc4ccc5ccccc5c4)ccc3N=C2N)c1)C1CCCCC1 [Compound 415] | <30% | <30% | 63% |  |  | 
13 | CC(=O)Nc1ccc(Sc2ccc3c(c2)CN(Cc2cccc(C(=O)N(C)C4CCCCC4)c2)C(N)=N3)cc1 [Compound 417] | <30% | <30% | 78% |  |  | 
14 | CN(C(=O)CCC(c1ccc(-c2ccccc2)cc1)N1Cc2cc(Oc3ccccc3)ccc2N=C1N)C1CCCCC1 (stereo not drawn) [Compound 420] | <30% | <30% | 53% |  |  | 
15 | CN(CCN1Cc2cc(Oc3ccccc3)ccc2N=C1N)C1CCCCC1 [Compound 429] | <30% | <30% | <30% |  |  | 
16 | COc1ccc(Nc2ccc3c(c2)CN(Cc2cccc(C(=O)N(C)C4CCCCC4)c2)C(N)=N3)cc1 [Compound 434] | <30% | <30% | <30% |  |  | 
17 | Cc1cccc(Nc2ccc3c(c2)CN(Cc2cccc(C(=O)N(C)C4CCCCC4)c2)C(N)=N3)c1 [Compound 435] | <30% | <30% | 85% |  |  | 
18 | CN(C(=O)c1cccc(CN2Cc3cc(Nc4ccc5ccccc5c4)ccc3N=C2N)c1)C1CCCCC1 [Compound 436] | <30% | 37% | 50% |  |  | 
19 | CN(C)c1ccc(Nc2ccc3c(c2)CN(Cc2cccc(C(=O)N(C)C4CCCCC4)c2)C(N)=N3)cc1 [Compound 438] | <30% | <30% | <30% |  |  | 

The next lines start with the values.

Row | % Inhibition (FS) 0.3 μM (0.3 μM test compound) | % Inhibition (FS) 1 μM (1 μM test compound) | % Inhibition (FS) 3 μM (3 μM test compound) | inhibition at 0.3 µM (0.3 μM test compound, read-out: % Inhibition (FS) 0.3 μM) | inhibition at 1 µM (1 μM test compound, read-out: % Inhibition (FS) 1 μM) | inhibition at 3 µM (3 μM test compound, read-out: % Inhibition (FS) 3 μM) | Compound
20 | <30% | <30% | <30% |  |  |  | CN1CCC(N(C)C(=O)c2cccc(C(c3ccccc3)N3Cc4cc(Oc5ccccc5)ccc4N=C3N)c2)CC1 (stereo not drawn) [Compound 316]
21 | −33% | <30% | <30% |  |  |  | CN(C(=O)c1cccc(CN2Cc3cc(-c4ccccc4-c4ccccc4)ccc3N=C2N)c1)C1CCCCC1 [Compound 321]
22 | <30% | <30% | 95% |  |  |  | CSc1ccccc1-c1ccc2c(c1)CN(Cc1cccc(C(=O)N(C)C3CCCCC3)c1)C(N)=N2 [Compound 322]
23 | <30% | <30% | <30% |  |  |  | CC(c1ccccc1)c1ccc2c(c1)CN(Cc1cccc(C(=O)N(C)C3CCCCC3)c1)C(N)=N2 (stereo not drawn) [Compound 332]
24 | <30% | 53% | 99% |  |  |  | CC(C)C(CC(=O)NC1C2CC3CC(C2)CC1C3)N1Cc2cc(Oc3ccccc3)ccc2N=C1N (stereo not drawn) [Compound 402]
25 | 43% | 106% | 118% |  |  |  | Cc1cccc(Sc2ccc3c(c2)CN(Cc2cccc(C(=O)N(C)C4CCCCC4)c2)C(N)=N3)c1 [Compound 405]
26 | <30% | <30% | 48% |  |  |  | CC(C)c1ccc(Sc2ccc3c(c2)CN(Cc2cccc(C(=O)N(C)C4CCCCC4)c2)C(N)=N3)cc1 [Compound 407]
27 | <30% | 34% | 95% |  |  |  | Cc1ccc(Sc2ccc3c(c2)CN(Cc2cccc(C(=O)N(C)C4CCCCC4)c2)C(N)=N3)cc1C [Compound 408]
28 | <30% | 39% | 50% |  |  |  | COc1ccc(Sc2ccc3c(c2)CN(Cc2cccc(C(=O)N(C)C4CCCCC4)c2)C(N)=N3)cc1 [Compound 410]
29 | <30% | <30% | 55% |  |  |  | COc1ccc(Sc2ccc3c(c2)CN(Cc2cccc(C(=O)N(C)C4CCCCC4)c2)C(N)=N3)cc1OC [Compound 411]
30 | <30% | <30% | 49% |  |  |  | COc1ccccc1Sc1ccc2c(c1)CN(Cc1cccc(C(=O)N(C)C3CCCCC3)c1)C(N)=N2 [Compound 412]
31 | <30% | <30% | −3% |  |  |  | CNC(=O)c1ccccc1Sc1ccc2c(c1)CN(Cc1cccc(C(=O)N(C)C3CCCCC3)c1)C(N)=N2 [Compound 416]
32 | <30% | 26% | 62% |  |  |  | NC1=Nc2ccc(Oc3ccccc3)cc2CN1CCNCC1CCCCC1 [Compound 427]
33 | <30% | 33% | 88% |  |  |  | COc1cccc(Nc2ccc3c(c2)CN(Cc2cccc(C(=O)N(C)C4CCCCC4)c2)C(N)=N3)c1 [Compound 433]
34 | <30% | <30% | 38% |  |  |  | CN(C(=O)c1cccc(CN2Cc3cc(Nc4ccc(C5CCCCC5)cc4)ccc3N=C2N)c1)C1CCCCC1 [Compound 437]
35 | <30% | <30% | <30% |  |  |  | CN(C(=O)c1cccc(CN2Cc3cc(Nc4ccc(N5CCOCC5)cc4)ccc3N=C2N)c1)C1CCCCC1 [Compound 439]
36 | <30% | 35% | 72% |  |  |  | CCOc1cccc(Nc2ccc3c(c2)CN(Cc2cccc(C(=O)N(C)C4CCCCC4)c2)C(N)=N3)c1 [Compound 440]
37 | <30% | 29% | 48% |  |  |  | CN(C(=O)c1cccc(CN2Cc3cc(Nc4ccc5c(c4)OCO5)ccc3N=C2N)c1)C1CCCCC1 [Compound 441]
